In patent US7410966B2, “Use of and some novel imidazopyridines” (AstraZeneca AB, priority 2002, dated 2008):
Where a name gives a salt, the structure may show the parent alone.

The molecules below were run against T1, recombinant human Itk kinase domain fused with GST (Homo sapiens, UniProt Q08881) (assay: Itk LANCE TRF Assay). Settings: 2 μM biotinylated peptide substrate, 50 μM ATP, 50 minutes RT, read-out: Inhibition of Kinase Itk (IC50 μM).
T1 construct: recombinant human Itk kinase domain fused with GST (Glutathione S-Transferase); GST (Glutathione S-Transferase); made in house; host or cells: High Five insect cells
T1 sequence (Q08881 363-615 limits assumed): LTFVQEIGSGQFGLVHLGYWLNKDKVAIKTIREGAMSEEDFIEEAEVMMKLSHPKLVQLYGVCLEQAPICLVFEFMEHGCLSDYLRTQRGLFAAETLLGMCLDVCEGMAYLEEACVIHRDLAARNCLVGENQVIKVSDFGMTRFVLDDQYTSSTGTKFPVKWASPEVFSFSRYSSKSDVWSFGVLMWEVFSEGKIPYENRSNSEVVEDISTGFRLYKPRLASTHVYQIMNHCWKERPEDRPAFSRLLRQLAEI
Type: biochemical
Experimental: The Itk kinase assay utilized recombinant human Itk kinase domain fused with GST (Glutathione S-Transferase). The protein was expressed in High five insect cells, purified in one step on an affinity chromatography glutathione column and stored in 50 mM Tris/HCl (pH 7.6), 150 mM NaCl, 5% (w/v) mannitol, 1 mM DTT, 30% glycerol at −70° C. The kinase substrate used in the assay was a biotinylated peptide derived from the Src-optimal substrate (Nair et al, J. Med. Chem., 38: 4276, 1995; biotin-AEEEIYGEFEAKKKK).
The assay additions were as follows: Test compounds (or controls; 1 μL in 100% DMSO) were added to black 96-well flat-bottomed plates (Greiner 655076) followed by 20 μL Itk in assay buffer and the reaction was started by adding 20 μL ATP and peptide substrate in assay buffer. The assay buffer constitution during, phosphorylation was: 50 mM HEPES (pH 6.8), 10 mM MgCl2, 0.015% Brij 35, 1 mM DTT, 10% glycerol, 160 ng/well Itk, 2 μM peptide substrate and 50 μM ATP. The assay was stopped after 50 minutes (RT) by adding 150 μL ice-cold Stop solution (50 mM Tris/HCl, pH 7.5, 10 mM EDTA, 0.9% NaCl and 0.1% BSA) together with LANCE reagents (2 nM PT66-Eu^3+, Wallac AD0069 and 5 μg/mL Streptavidin-APC, Wallac AD0059. Both concentrations were final in stopped assay solution). The plates were measured on a Wallac 1420 Victor 2 instrument with TRF settings after 1 h incubation, and the ratio (665 signal/615 signal)*10000 was used to calculate the inhibition values. IC50 values were determined using XLfit.

| Structure (SMILES) | IC50 [µM] |
| --- | --- |
| OCCN1CCN(CC(O)COc2ccc(-c3nc4cc(Br)cnc4[nH]3)cc2)CC1 (centres unmarked) [Example 162, 1-[4-(6-Bromo-3H-imidazo[4,5-b]pyridin-2-yl)phenoxy]-3-[4-(2-hydroxyethyl)piperazin-1-yl]propan-2-ol bis(trifluoroacetate)] | 0.53 |
| OC1CCN(CC(O)COc2ccc(-c3nc4cc(Br)cnc4[nH]3)cc2)C1 (centres unmarked) [Example 124, 1-{3-[4-(6-Bromo-3H-imidazo[4,5-b]pyridin-2-yl)phenoxy]-2-hydroxypropyl}pyrrolidin-3-ol] | 0.43 |
| Cc1ccc(-c2c(Cl)cnc3[nH]c(-c4ccc(OCCN5CCOCC5)cc4)nc23)cc1 [Example 238, 6-Chloro-7-(4-methylphenyl)-2-[4-(2-morpholin-4-ylethoxy)phenyl]-3H-imidazo[4,5-b]pyridine] | 0.35 |
| COc1ccc(S(=O)(=O)Nc2ccc(-c3nc4ncc(Cl)c(Cl)c4[nH]3)cc2)cc1 [Example 267, N-[4-(6,7-Dichloro-1H-imidazo[4,5-b]pyridin-2-yl)phenyl]-4-methoxybenzenesulfonamide] | 0.26 |
| Clc1cnc2[nH]c(-c3ccc(OCCN4CCOCC4)cc3)nc2c1N1CCCC1 [Example 236, 6-Chloro-2-[4-(2-morpholin-4-ylethoxy)phenyl]-7-pyrrolidin-1-yl-3H-imidazo[4,5-b]pyridine] | 0.41 |

Now from value to molecule:

| IC50 [µM] | Structure (SMILES) |
| --- | --- |
| 0.29 | COc1ccc(CNc2ccc(-c3nc4cc(Br)cnc4[nH]3)cc2)cc1 [Example 180, N-[4-(6-Bromo-3H-imidazo[4,5-b]pyridin-2-yl)phenyl]-N-(4-methoxybenzyl)amine bis(trifluoroacetate)] |
| 0.31 | COc1cc(-c2nc3cc(Br)cnc3[nH]2)ccc1OCc1ccccc1 [Example 29, 2-[4-(Benzyloxy)-3-methoxyphenyl]-6-bromo-3H-imidazo[4,5-b]pyridine trifluoroacetate] |
| 0.24 | Brc1cnc2[nH]c(-c3ccc(OCCNc4nccs4)cc3)nc2c1 [Example 104, N-{2-[4-(6-Bromo-3H-imidazo[4,5-b]pyridin-2-yl)phenoxy]ethyl}-1,3-thiazol-2-amine bis(trifluoroacetate)] |
